Experimental data reported in publication PMC12765108, “Establishing selectivity of FAK-paxillin PPI inhibitor using pulldown proteomics and a focal adhesion protein selectivity panel” (Biochemistry and Biophysics Reports, 2025).
“Also recorded” adds a separate entry of the source.

Columns and labels:
[1] = ref [5]; cited from earlier work
Text: (§1) The most significant finding in this manuscript is the nanomolar, highly specific affinity (Fig. 4g) between UA-1907 and the FAK FAT domain by SPR, but not […], PARVA, PARVB, VinH, and VinT. As previously discussed, the challenge of targeting FAK historically has been the off-target effects of ATP-competitive kinase inhibitors. […] The high selectivity of the FAT domain t ...

[2] = system: kinome; conditions: ref [5]; cited from earlier work
Text: as §1

[3] = target: T1, FAK FAT (a.a. 892–1052) (Homo sapiens, UniProt Q05397); assay: SPR direct binding; conditions: 4.9 nM to […]
T1 construct: FAK FAT (a.a. 892–1052); 6X His (N); made in house; host or cells: E. coli BL21 DE3
T1 sequence (Q05397 892-1052): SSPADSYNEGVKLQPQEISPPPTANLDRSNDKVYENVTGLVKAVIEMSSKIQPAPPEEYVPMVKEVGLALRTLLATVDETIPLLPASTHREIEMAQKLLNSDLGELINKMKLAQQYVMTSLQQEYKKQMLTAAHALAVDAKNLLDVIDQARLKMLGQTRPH
Text: (§2) Vinculin Tail (VinT) (a.a. 811–1066), Vinculin Head (VinH) (a.a. 1–258), Actopaxin, (PARVA complete protein), beta-parvin (PARVB, total protein), FAK FAT (a.a. 892–1052), and Talin-1 Rod 8 (a.a. 1453–1580) were purified in E. coli BL21 DE3 using 6X-Histag TOPO-100 plasmid constructs with AmpR gene (ThermoFisher). Purification procedures were as previously described. Proteins were purified using NiNTA affinity chromatography (ThermoFisher) followed by size-exclusion chromatography using the Akta Pump 900 system and HiLoad 26/600 SuperDex 75 pg column. Major peaks (Unicorn 3.0 software) were validated using SDS-PAGE stain free imaging (Biorad).
SPR was performed on a Sartorius Pioneer FE instrument as previously described. Briefly, biotinylated UA-1907 was immobilized onto Streptavidin Dextran Hydrogel (SADH) biosensor at a RU = 50. […] Equilibrium dissociation constant (KD) was calculated using Qdat software and 1:1 kinetic binding model.

[4] = system: FA selectivity panel (VinT, VinH, PARVA, PARVB, Talin-1 Rod 8, FAK FAT); assay: SPR focal adhesion selectivity panel; format: binding
Text: as §2
SPR was performed on a Sartorius Pioneer FE instrument as previously described. Briefly, biotinylated UA-1907 was immobilized onto Streptavidin Dextran Hydrogel (SADH) biosensor at a RU = 50. Proteins were flowed over at 75 μL/min in running buffer (50 mM Tris pH 8.0, 200 mM NaCl, 5 % glycerol) from 2.5 μM to 4.9 nM. Equilibrium dissociation constant (KD) was calculated using Qdat software and 1:1 kinetic binding model.

[5] = system: Paxillin; assay: Pulldown (MS and WB), SK-MEL-147 lysate; format: binding
Protocol: 3000ug of SK-MEL-147 lysates were precleared in 60uL agarose beads for 1 h at 4C. […] Beads were washed with NP40 buffer without inhibitors and proteins were eluted using 63 mM Tris pH 6.8 and 5 % SDS. Elution proteins underwent trypsin digestion and were analyzed in nanoLC-MS/MS at the UA Biological Mass Spectroscopy Core using the Thermo Q Exactive Orbitrap mass spectrometer (MS) coupled to the Thermo Vanquish Neo nano-LC system. Peptide sequences were determined, correlated to SwissProt protein sequences, and normalized in Scaffold Proteomics Discoverer.
Protein Label Free Quantification (LFQ) was represented by Normalized Total Spectra. Fold Enrichment (FE) was calculated using Eq. (1): FE=(PulldownLFQ−EthanolamineControlBeadLFQ)/TotalLysateLFQ
Bead elutions were ran on a 4–20 % TGX Stain Free Gel and imaged via Stain Free Imaging (ChemDoc Biorad Imager) before transfer onto a PVDF membrane (TurboTransfer High MW). Blots were blocked using 5 % BSA in TBS-0.1 % Tween-20. Each primary antibody was used in 1:1000 dilution and incubated overnight at 4C. Blots were washed 3X and incubated in 1:5000 secondary antibody at RT for 1 h. Blots were incubated with ECL reagent (Biorad) for 5 min. Blots were imaged utilizing ChemDoc Biorad Imager for 3 min taking 60 total images. Results can be found in Supplementary Fig. 2.

[6] = system: FAK FAT domain; parameters: method as in PMID 40021642; conditions: ref [5]; cited from earlier work
[7] = system: FAK-paxillin interaction; conditions: cellular and biochemical systems; ref [5]; cited from earlier work

Row | SMILES | cellular toxicity [1] | kinome selectivity [2] | binding [3] | binding selectivity across panel [4] | paxillin pulldown [5] | binding to FAK FAT domain [6] | inhibition of FAK-paxillin interaction [7]
1 | CNC(=O)c1ccc(Nc2ncc(C(F)(F)F)c(NCc3nccnc3N(C)S(C)(=O)=O)n2)cc1 [defactinib] | high cellular toxicity | poor kinome selectivity |  |  |  |  | 
2 | CC(=O)N[C@@H](CC(N)=O)C(=O)N[C@@H](CC(C)C)C(=O)N[C@]1(C)CCCCCC/C=C/CCC[C@@](C)(C(=O)N[C@@H](CCC(=O)O)C(=O)N[C@@H](CC(C)C)C(=O)N[C@@H](CC(N)=O)C(N)=O)NC(=O)[C@H](CC(C)C)NC(=O)[C@H](CC(C)C)NC(=O)[C@H](CCCNC(=N)N)NC(=O)[C@H](CC(=O)O)NC(=O)[C@H](CC(C)C)NC(=O)[C@H](CCC(=O)O)NC1=O [UA-1907] |  |  | bound to UA-1907 in a dose-dependent manner | only the FAK-FAT domain has a nanomolar binding affinity (KD) for UA-1907, whereas other FA proteins have no binding; also recorded: strong nanomolar binding affinity to the FAT domain of FAK, while minimal affinity to other FA proteins | paxillin did not pulldown with UA-1907 | binds the FAK FAT domain with high affinity | dose-dependently inhibits the FAK-paxillin interaction
